Measurements: PubChem BioAssay (NCI)
Values joined by “and” are separate entries in the source; they are usually repeats but may differ in a detail not shown here. Identical values can stand only once.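 Compound exposure: 48 hours, 5 concentrations, 96-well plates. The concentration for 50% growth inhibition is given as GI50. Definition used: TGI = concentration required for complete inhibition of growth.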

Columns and labels:
Assay in all cases: NCI anticancer screen, dose series, 48 h
[1] = test system: KM20L2 colon
[2] = test system: NCI-H226 lung
[3] = test system: A498 renal
[4] = test system: KM12 colon
[5] = test system: OVCAR-3 ovarian
[6] = test system: DMS 273 small cell lung
[7] = test system: DMS 114 small cell lung
[8] = test system: TK-10 renal
[9] = test system: HS 578T breast
[10] = test system: NCI/ADR-RES ovarian

| Structure (SMILES) | TGI [1] | TGI [2] | TGI [3] [µM] | TGI [4] [µM] | TGI [5] [µM] | TGI [6] [µM] | TGI [7] | TGI [8] | GI50 [3] [µM] | GI50 [8] [µM] | GI50 [4] [µM] | TGI [9] [µM] | TGI [10] [µM] | GI50 [2] [µM] |
| --- | --- | --- | --- | --- | --- | --- | --- | --- | --- | --- | --- | --- | --- | --- |
| c1ccc(P(=Nc2ccccc2N=P(c2ccccc2)(c2ccccc2)c2ccccc2)(c2ccccc2)c2ccccc2)cc1 | 10.3 µM | 1.38 µM | 5.56 | 12.8 | 0.783 | 10 | 2.68 µM | – | – | – | – | – | – | – |
| COC(=O)CC1NC(=O)C1C1(C)OCCO1 (stereo not given) | > 100 µM | > 100 µM | > 100 | – | > 100 | > 100 | > 100 µM | > 100 µM | – | – | – | – | – | – |
| CCCCCCN(N)C(=O)CC#N | > 100 µM | > 100 µM | > 100 | > 100 | > 100 | > 100 | > 100 µM | > 100 µM | – | – | – | – | – | – |
| C=C1CCC2[C@@H](CCC3[C@]2(C)CCC[C@]3(C)C(=O)OC)[C@@H]1CC=O (stereo not given in full) | 62.7 µM | > 100 µM | > 100 | > 100 | 41.9 | 50.1 | 53.2 µM | 77.5 µM | 87.8 | 31 | 39.3 | – | – | – |
| Cn1c2ccccc2n2c(=O)c3c(c(C#N)c12)CCCC3 | > 100 µM | > 100 µM | > 100 | > 100 | > 100 | > 100 | > 100 µM | > 100 µM | – | – | – | – | – | – |
| COc1ccc(C=O)c(NC(=O)C(C)C)c1 | > 100 µM | > 10 µM | > 100 | > 10 | > 100 | > 100 | 88.7 µM | > 100 µM | – | – | – | – | – | – |
| O=C(NC1CCCC1=O)c1ccccc1 (stereo not given) | > 100 µM | > 100 µM | > 100 | > 100 | > 100 | > 100 | > 100 µM | > 100 µM | – | – | – | – | – | – |
| CN(C)CC1CCCC1=O (stereo not given) | 5.32 µM | 30.5 µM | 27.3 | 5.85 | 2.91 | 3.28 | 2.33 µM | 8.04 µM | – | – | – | 56.2 | 55.7 | – |
| CC(C)c1c2[nH]c3ccccc3c2c(C(C)C)c2[nH]c3ccccc3c12 | > 100 µM | > 82.8 µM | > 100 | > 100 | > 100 | > 100 | > 100 µM | > 100 µM | – | – | – | – | – | – |
| CC1CN1c1c(C(=O)/C=C/c2ccccc2)c(-c2ccccc2)nn(C)c1=O (stereo not given) | 36.2 µM | 45.3 µM | 32.4 | 44.2 | 40.8 | 30.3 | 43.8 µM | 61.4 µM | – | – | – | – | – | – |
| Fc1cccc(C2SCc3nc4ccccc4n32)c1F (stereo not given) | > 100 µM | > 100 µM | > 100 | > 100 | > 100 | 50.5 | > 100 µM | > 100 µM | – | – | – | – | – | – |
| COCCOCOc1ccc(OCOCCOC)c2c1C(=O)c1ccccc1C2=O | > 100 µM | > 100 µM | > 100 | > 100 | > 100 | > 100 | 37.3 µM | > 100 µM | – | – | – | – | – | – |
| COC(=O)C(C)(C)N=CN(C)C | > 100 µM | > 100 µM | > 100 | > 100 | > 100 | > 100 | > 100 µM | > 100 µM | – | – | – | – | – | – |
| Cc1cc(N(CCC#N)CCC#N)ccc1/C=C1N=C(/C=C\c2ccccc2)N(c2ccc(Cl)cc2)C\1=O | > 31.9 µM | > 100 µM | > 100 | > 100 | > 100 | > 100 | > 100 µM | > 100 µM | – | – | – | > 100 | > 100 | – |
| C/C1=C\[C@@H](O)C(=O)/C=C/C=C\c2csc(n2)[C@@H](C)NC(=O)C[C@@]2(CC1)S(=O)SC(=O)[C@]2(C)O (stereo not given in full) | 0.636 µM and 0.599 µM | 0.558 µM and 0.327 µM | 0.0272 | – | – | 0.106 | 0.169 µM and 0.022 µM | 0.861 µM and 0.138 µM | – | 0.0131 | – | 0.435 | 0.11 | 0.0254 |
| O=P1(Oc2ccccc2)C(c2ccccc2)C(c2ccccc2)=NN1c1ccccc1 (stereo not given) | 44.9 µM | 55 µM | 84.6 | 64.4 | 42.2 | 89.3 | 43.8 µM | > 100 µM | – | – | – | – | – | – |
| Cc1ccc(S(=O)OC2C3CC4CC(C3)CC2C4)cc1 (stereo not given) | > 100 µM | > 100 µM | > 100 | > 100 | > 100 | > 100 | > 100 µM | > 100 µM | – | – | – | – | – | – |
| Cc1cc(N(CCC#N)CCC#N)ccc1/C=C1/N=C(c2ccccc2)N(N)C1=O | > 100 µM | > 100 µM | > 100 | > 100 | > 100 | > 100 | > 100 µM | > 100 µM | – | – | – | – | – | – |
| COc1cc2nc(NCCCCCNC(=O)c3ccco3)nc(N)c2cc1OC | > 100 µM | 95.6 µM | > 100 | 62.4 | 62.5 | > 100 | 40.6 µM | > 100 µM | – | – | – | – | – | – |
| [N-]=[N+]=C1C(=O)C2CC3CC(C2)CC1C3 | > 100 µM | > 100 µM | > 100 | > 100 | > 100 | > 100 | > 100 µM | > 100 µM | – | – | – | – | – | – |
| CN1COc2c(n(C)c(=O)[nH]c2=O)C1 | > 100 µM | > 100 µM | > 100 | > 100 | > 100 | > 100 | > 100 µM | > 100 µM | – | – | – | – | – | – |
